target: ROCK2 (Homo sapiens, UniProt O75116); assay: ROCK kinase inhibition assay, FITC peptide substrate, LABCHIP 3000 readout; type: biochemical; conditions: 5 μM ATP, 1.5 μM peptide substrate
Summary of the method: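 Tested across a concentration range, with percent inhibition of kinase activity derived per concentration. Peptide phosphorylation, initiated by adding the Rho kinase variant (final DMSO <2%), was quenched with EDTA and substrate/product resolved by mobility shift.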

Chain of ROCK2 (O75116 whole entry, species assumed): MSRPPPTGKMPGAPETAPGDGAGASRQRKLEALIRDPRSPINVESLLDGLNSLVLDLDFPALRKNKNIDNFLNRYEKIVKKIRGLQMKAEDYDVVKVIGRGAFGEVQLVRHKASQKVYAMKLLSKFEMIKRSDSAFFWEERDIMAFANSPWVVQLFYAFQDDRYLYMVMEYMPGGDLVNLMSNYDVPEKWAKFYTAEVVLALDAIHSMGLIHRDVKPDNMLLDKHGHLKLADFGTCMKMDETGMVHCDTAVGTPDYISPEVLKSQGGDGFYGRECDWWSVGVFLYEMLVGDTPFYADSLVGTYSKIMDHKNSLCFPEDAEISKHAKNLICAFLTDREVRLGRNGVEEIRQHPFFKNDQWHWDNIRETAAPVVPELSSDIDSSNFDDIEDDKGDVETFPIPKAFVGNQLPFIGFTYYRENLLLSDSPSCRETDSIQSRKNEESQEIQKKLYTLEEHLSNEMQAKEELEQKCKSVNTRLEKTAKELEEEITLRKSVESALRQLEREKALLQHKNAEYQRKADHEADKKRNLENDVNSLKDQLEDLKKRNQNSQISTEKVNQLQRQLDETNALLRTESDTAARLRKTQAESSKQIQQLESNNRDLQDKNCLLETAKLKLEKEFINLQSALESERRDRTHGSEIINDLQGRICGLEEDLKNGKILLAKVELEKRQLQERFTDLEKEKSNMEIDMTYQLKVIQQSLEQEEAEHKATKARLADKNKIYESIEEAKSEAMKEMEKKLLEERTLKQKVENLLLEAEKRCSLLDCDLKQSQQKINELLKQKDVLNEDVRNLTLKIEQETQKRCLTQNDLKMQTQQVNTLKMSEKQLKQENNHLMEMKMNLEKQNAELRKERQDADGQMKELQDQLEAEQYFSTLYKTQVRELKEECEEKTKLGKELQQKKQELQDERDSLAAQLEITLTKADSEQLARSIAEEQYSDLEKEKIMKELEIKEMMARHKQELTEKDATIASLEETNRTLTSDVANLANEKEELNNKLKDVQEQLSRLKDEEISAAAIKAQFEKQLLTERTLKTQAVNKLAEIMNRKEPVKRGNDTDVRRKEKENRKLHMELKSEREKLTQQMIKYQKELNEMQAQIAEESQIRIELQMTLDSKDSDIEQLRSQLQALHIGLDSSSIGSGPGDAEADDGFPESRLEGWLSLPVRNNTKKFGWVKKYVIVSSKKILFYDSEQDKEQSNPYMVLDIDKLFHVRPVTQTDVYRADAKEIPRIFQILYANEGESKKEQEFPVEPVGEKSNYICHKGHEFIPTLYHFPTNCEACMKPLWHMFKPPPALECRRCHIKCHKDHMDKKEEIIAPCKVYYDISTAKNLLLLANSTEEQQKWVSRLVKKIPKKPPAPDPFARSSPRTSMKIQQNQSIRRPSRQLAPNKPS

Row | IC50 | SMILES
1 | 54 nM | CN1CCN(c2ccc(C(=O)N3CCC4(CC3)CCN(c3ccc(-c5ccnc(O)c5)cc3)C4=O)cc2)CC1 [Example 32, 2-[4-(2-hydroxypyridin-4-yl)phenyl]-8-[4-(4-methylpiperazin-1-yl)benzoyl]-2,8-diazaspiro[4.5]decan-1-one]
2 | 851 nM | COc1cc(N2CCC3(CCN(C(=O)c4ccc(-c5ccccc5)o4)CC3)C2=O)ccc1-c1cn[nH]c1 [Example 85, 2-[3-methoxy-4-(1H-pyrazol-4-yl)phenyl]-8-(5-phenylfuran-2-carbonyl)-2,8-diazaspiro[4.5]decan-1-one]
3 | 50 nM | CCc1ccc(C(=O)N2CCC3(CC2)CCN(c2ccc(-c4cn[nH]c4)c(OC)c2)C3=O)cc1 [Example 20, 8-(4-ethylbenzoyl)-2-[3-methoxy-4-(1H-pyrazol-4-yl)phenyl]-2,8-diazaspiro[4.5]decan-1-one]
4 | 16 nM | COc1cc(N2CCC3(CCN(C(=O)c4ccc5nc(-c6ccncc6)[nH]c5c4)CC3)C2=O)ccc1-c1cn[nH]c1 [Example 182, 2-[3-methoxy-4-(1H-pyrazol-4-yl)phenyl]-8-[2-(pyridin-4-yl)-1H-1,3-benzodiazole-6-carbonyl]-2,8-diazaspiro[4.5]decan-1-one]
5 | 1100 nM | CN1CCN(c2ccc(C(=O)N3CCC4(CC3)CCN(c3cccc(-c5cn[nH]c5)c3)C4=O)cc2)CC1 [Example 48, 8-[4-(4-methylpiperazin-1-yl)benzoyl]-2-[3-(1H-pyrazol-4-yl)phenyl]-2,8-diazaspiro[4.5]decan-1-one]
6 | 330 nM | O=C1N(c2ccc(-c3cn[nH]c3)cc2)CCC12CCN(S(=O)(=O)c1ccccc1)CC2 [Example 2, 8-(benzenesulfonyl)-2-[4-(1H-pyrazol-4-yl)phenyl]-2,8-diazaspiro[4.5]decan-1-one]
7 | 78 nM | COc1cc(N2CCC3(CCN(C(=O)c4ccc5c(c4)CC(=O)N5)CC3)C2=O)ccc1-c1cn[nH]c1 [Example 177, 2-[3-methoxy-4-(1H-pyrazol-4-yl)phenyl]-8-(2-oxo-2,3-dihydro-1H-indole-5-carbonyl)-2,8-diazaspiro[4.5]decan-1-one]
8 | 0.6 nM | COc1cc(N2CCC3(CCN(C(=O)c4ccc(N5CCN(CCc6ccccc6)CC5)cc4)CC3)C2=O)ccc1-c1cn[nH]c1 [Example 239, 2-[3-methoxy-4-(1H-pyrazol-4-yl)phenyl]-8-{4-[4-(2-phenylethyl)piperazin-1-yl]benzoyl}-2,8-diazaspiro[4.5]decan-1-one]
9 | 2070 nM | COc1cc(N2CCC3(CCN(C(=O)C4CCN(C)CC4)CC3)C2=O)ccc1-c1cn[nH]c1 [Example 172, 2-[3-methoxy-4-(1H-pyrazol-4-yl)phenyl]-8-(1-methylpiperidine-4-carbonyl)-2,8-diazaspiro[4.5]decan-1-one]
10 | 2000 nM | COc1cc(N2CCC3(CCN(C(=O)C4CCN(S(C)(=O)=O)CC4)CC3)C2=O)ccc1-c1cn[nH]c1 [Example 154, 8-(1-methanesulfonylpiperidine-4-carbonyl)-2-[3-methoxy-4-(1H-pyrazol-4-yl)phenyl]-2,8-diazaspiro[4.5]decan-1-one]
11 | 0.7 nM | COc1cc(N2CCC3(CCN(C(=O)c4ccc(N5CCN(CC6CCOC6)CC5)cc4)CC3)C2=O)ccc1-c1cn[nH]c1 (stereo not drawn) [Example 246, 2-[3-methoxy-4-(1H-pyrazol-4-yl)phenyl]-8-(4-{4-[(oxolan-3-yl)methyl]piperazin-1-yl}benzoyl)-2,8-diazaspiro[4.5]decan-1-one]
12 | 336 nM | COc1cc(OC)c(C(=O)N2CCC3(CC2)CCN(c2ccc(-c4cn[nH]c4)c(OC)c2)C3=O)c(OC)c1 [Example 29, 2-[3-methoxy-4-(1H-pyrazol-4-yl)phenyl]-8-(2,4,6-trimethoxybenzoyl)-2,8-diazaspiro[4.5]decan-1-one]
13 | 1240 nM | COc1cc(N2CCC3(CCN(C(=O)C4CCN(c5ncccn5)CC4)CC3)C2=O)ccc1-c1cn[nH]c1 [Example 140, 2-[3-methoxy-4-(1H-pyrazol-4-yl)phenyl]-8-[1-(pyrimidin-2-yl)piperidine-4-carbonyl]-2,8-diazaspiro[4.5]decan-1-one]
14 | 17 nM | COc1cc(N2CCC3(CCN(C(=O)c4cc(C5CC5)n[nH]4)CC3)C2=O)ccc1-c1cn[nH]c1 [Example 111, 8-(3-cyclopropyl-1H-pyrazole-5-carbonyl)-2-[3-methoxy-4-(1H-pyrazol-4-yl)phenyl]-2,8-diazaspiro[4.5]decan-1-one]
15 | 2560 nM | COc1ccccc1C(=O)N1CCC2(CCN(c3ccc(-c4cn[nH]c4)cc3)C2=O)C1 (stereo not drawn) [Example 43, 7-(2-methoxybenzoyl)-2-[4-(1H-pyrazol-4-yl)phenyl]-2,7-diazaspiro[4.4]nonan-1-one]
16 | 0.3 nM | COc1cc(N2CCC3(CCN(C(=O)c4ccc(N5CCN(Cc6ccc(-n7ccnc7)cc6)CC5)cc4)CC3)C2=O)ccc1-c1cn[nH]c1 [Example 220, 8-[4-(4-{[4-(1H-imidazol-1-yl)phenyl]methyl}piperazin-1-yl)benzoyl]-2-[3-methoxy-4-(1H-pyrazol-4-yl)phenyl]-2,8-diazaspiro[4.5]decan-1-one]
17 | 12 nM | CCc1ccc(C(=O)N2CCC3(CC2)CCN(c2ccc(-c4cn[nH]c4)c(OC)c2)C3=O)nc1 [Example 108, 8-(5-ethylpyridine-2-carbonyl)-2-[3-methoxy-4-(1H-pyrazol-4-yl)phenyl]-2,8-diazaspiro[4.5]decan-1-one]
18 | 2 nM | COc1cc(N2CCC3(CCN(C(=O)c4ccc(N5CCOCC5)cc4)CC3)C2=O)ccc1-c1cn[nH]c1 [Example 94, 2-[3-methoxy-4-(1H-pyrazol-4-yl)phenyl]-8-[4-(morpholin-4-yl)benzoyl]-2,8-diazaspiro[4.5]decan-1-one]
19 | 85 nM | COc1cccc(C(=O)N2CCC3(CC2)CCN(c2ccc(-c4cn[nH]c4)cc2)C3=O)c1 [Example 5, 8-(3-methoxybenzoyl)-2-[4-(1H-pyrazol-4-yl)phenyl]-2,8-diazaspiro[4.5]decan-1-one]
20 | 464 nM | COc1ncc(C(=O)N2CCC3(CC2)CCN(c2ccc(-c4cn[nH]c4)c(OC)c2)C3=O)cn1 [Example 99, 2-[3-methoxy-4-(1H-pyrazol-4-yl)phenyl]-8-(2-methoxypyrimidine-5-carbonyl)-2,8-diazaspiro[4.5]decan-1-one]
21 | 35 nM | COc1cc(N2CCC3(CCN(C(=O)c4ccc(C(N)=O)cc4)CC3)C2=O)ccc1-c1cn[nH]c1 [Example 181, 4-{2-[3-methoxy-4-(1H-pyrazol-4-yl)phenyl]-1-oxo-2,8-diazaspiro[4.5]decane-8-carbonyl}benzamide]
22 | 1.6 nM | COc1cc(N2CCC3(CCN(C(=O)c4ccc(N5CCN(CCC(C)C)CC5)cc4)CC3)C2=O)ccc1-c1cn[nH]c1 [Example 238, 2-[3-methoxy-4-(1H-pyrazol-4-yl)phenyl]-8-{4-[4-(3-methylbutyl)piperazin-1-yl]benzoyl}-2,8-diazaspiro[4.5]decan-1-one]
23 | 453 nM | COc1cc(N2CCC3(CCN(C(=O)c4csnn4)CC3)C2=O)ccc1-c1cn[nH]c1 [Example 77, 2-[3-methoxy-4-(1H-pyrazol-4-yl)phenyl]-8-(1,2,3-thiadiazole-4-carbonyl)-2,8-diazaspiro[4.5]decan-1-one]
24 | 50 nM | COCCN1Cc2cccc(C(=O)N3CCC4(CC3)CCN(c3ccc(-c5cn[nH]c5)c(OC)c3)C4=O)c2C1=O [Example 204, 2-[3-methoxy-4-(1H-pyrazol-4-yl)phenyl]-8-[2-(2-methoxyethyl)-3-oxo-2,3-dihydro-1H-isoindole-4-carbonyl]-2,8-diazaspiro[4.5]decan-1-one]

Reference: patent publication US11192891B2, “Diazaspiro ROCK inhibitors” (BRISTOL-MYERS SQUIBB COMPANY, priority 2017, dated 2021)
